This note sets out measurements from patent US12577267B2, “Pyrimidine compounds for use as MAP4K1 inhibitors” (GLENMARK SPECIALITY S.A., priority 2021, dated 2026).

One assay concerns CT26 tumor. The experiment in a line: Anti-tumor efficacy on a syngeneic mouse colon tumor model of CT26. The class given is in vivo, BALB/c mice. The method, then: Evaluation of Anti-Tumor Efficacy of Example 2 and Example 30 on a Syngeneic Mouse Colon Tumor Model of CT26.
Healthy female BALB/c mice (7 to 9 weeks old and 15 to […]) were obtained from Glenmark animal facility. Animals were group housed in polypropylene cages at a controlled temperature of 20-22° C. with a light/dark cycle of 12/12 hours. They were maintained on an ad lib standard mouse pellet diet and water and all animal experiments were performed as per protocols approved by the Institutional Animal Ethics Committee (IAEC).
CT-26 cell line was obtained from American type culture (ATCC® CRL-2638™). Cells were revived in T-flask (passage 5) with complete RPMI-1640 media and incubated at 37° C. in 5% CO2, 80% relative humidity. Cells were re-suspended, pooled and split into 1:10 ratio per flask, maintained for 3 passages and passage 8 was used for cell inoculation into animals.
The right flank region of mice was shaved by electronic shaver. Required number of CT26 cells (10 million per mL of serum free media) received on ice from cell culture lab. The mice were anesthetized by isoflurane with O2 (oxygen flow meter to 1-2 liter/min and turn isoflurane vaporizer dial to 2-3%). The cells were inoculated into the right flank region of mice at cell concentration of 1 million cells/100 μL/mouse. The inoculated mice were housed in the animal room with daily observation for any undue clinical signs.
On day 10 after cell inoculation, mice were randomized based on tumor volume and grouped into different treatment groups. The mice with tumor volume range of 57 mm^3 to 119 mm^3 were included in efficacy study. Tumor volume was measured using digital vernier caliper.
The volume calculations were obtained using the formula V(mm^3)=[L×(W×W)]×0.52 • V is tumor volume, L is tumor length and W is tumor width
Compound Preparation and Administration
0.5% v/v Tween 80 and 0.5% w/v Methyl Cellulose in distilled water was used as vehicle for oral formulation. Example 2 and Example 30 were weighed and a stock suspension of 50 mg/kg/10 mL was prepared in a mortar and pestle by adding Tween 80 (0.5% v/v), Methyl cellulose (MC, 0.5% w/v). […] The body weights were recorded on daily basis and the dosing time was maintained throughout the study. […]
Tumor volume was measured in a blinded manner throughout the study. […] The % TGI was calculated by following the formula: [1−{(Tt−T0)/(Ct−C0)}]×100. • Tt=Tumor volume of treatment group on day of tumor volume • T0=Tumor volume of treatment group on day of randomization • Ct=Tumor volume of vehicle control group on day of tumor volume • C0=Tumor volume of control group on day of randomization Sacrifice Plan […]
Tumor volume data was statistically analyzed using Two-way ANOVA followed by Bonferroni's Multiple Comparison Test. […]

A further assay deals with MAP4K-1 enzyme (Homo sapiens, UniProt Q92918). Briefly: FRET one step binding assay (tracer displacement). The gist of the method: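 TR-FRET tracer-displacement binding with 5 nM GST-tagged MAP4K-1 and 2 nM Eu-anti-GST antibody in 50 mM HEPES pH 7.5, 10 mM MgCl2, 1 mM EGTA, 0.01% Brij-35, 3% DMSO final. Compound pre-incubated 15 min on ice, then 1 h at room temperature after tracer addition. IC50 from nonlinear regression of percent-of-control dose-response.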
Chain of MAP4K-1 enzyme (Q92918 whole entry): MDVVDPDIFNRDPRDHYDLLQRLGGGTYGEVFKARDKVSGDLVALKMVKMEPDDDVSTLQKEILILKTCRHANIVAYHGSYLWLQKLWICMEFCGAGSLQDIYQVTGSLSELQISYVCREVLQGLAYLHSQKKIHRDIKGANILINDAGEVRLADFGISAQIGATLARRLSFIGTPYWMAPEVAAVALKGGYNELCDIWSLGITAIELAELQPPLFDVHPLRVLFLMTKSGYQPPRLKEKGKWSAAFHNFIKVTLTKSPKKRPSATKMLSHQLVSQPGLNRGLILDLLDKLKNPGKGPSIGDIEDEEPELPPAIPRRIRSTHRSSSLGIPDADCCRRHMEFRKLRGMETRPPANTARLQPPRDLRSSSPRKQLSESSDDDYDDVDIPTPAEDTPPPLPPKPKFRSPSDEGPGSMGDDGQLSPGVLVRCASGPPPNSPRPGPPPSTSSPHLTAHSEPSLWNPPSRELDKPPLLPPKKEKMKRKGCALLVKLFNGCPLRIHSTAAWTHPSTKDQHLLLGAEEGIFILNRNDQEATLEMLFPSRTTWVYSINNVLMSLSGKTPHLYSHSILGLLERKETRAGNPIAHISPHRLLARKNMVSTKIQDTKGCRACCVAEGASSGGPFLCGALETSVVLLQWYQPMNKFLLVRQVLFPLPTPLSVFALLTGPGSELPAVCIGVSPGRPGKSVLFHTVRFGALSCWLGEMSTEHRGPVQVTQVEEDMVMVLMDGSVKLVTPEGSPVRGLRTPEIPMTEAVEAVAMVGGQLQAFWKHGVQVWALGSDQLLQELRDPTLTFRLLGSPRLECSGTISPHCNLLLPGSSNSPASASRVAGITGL

Where a name gives a salt, the structure may show the parent alone. Read-outs that look alike come from different tables or passages of the source. A value given as a limit tells only on which side of the number the result lay.

The term inhibition denotes how much of the control response was suppressed. A low value points to a weak effect. Broadly, the IC50 is the concentration that inhibits the measured activity by half. Higher therefore signals weaker potency in that assay. Consider `COc1cc2c(cc1Nc1ncc(Cl)c(Nc3ccc(OS(=O)(=O)F)cc3P(C)(C)=O)n1)CN(C)CC2` [Example 2, 4-((5-chloro-2-((6-methoxy-2-methyl-1,2,3,4-tetrahydroisoquinolin-7-yl)amino)pyrimidin-4-yl)amino)-3-(dimethylphosphoryl)phenyl sulfofluoridate dihydrochloride], for which the “Tumor growth inhibition (TGI)” value with CT26 tumor (10 mg/kg p.o. QD, day 24, vs vehicle group) was determined as 40%; in the assay with CT26 tumor (50 mg/kg p.o. QD, day 24, vs vehicle group), 61%. Besides, the inhibition at 1 µM at MAP4K-1 enzyme (1 μM compound) came out at 86%. The same molecule yielded an inhibition at 10 µM on MAP4K-1 enzyme (10 μM compound) of 82.1%. This molecule came in with an IC50 at MAP4K-1 enzyme (IC50 (nM)) of under 50 nM.
The % Inhibition is the drop in the measured response relative to a control, in per cent. Higher therefore signals strong suppression. As to `COc1cc2c(cc1Nc1ncc(Cl)c(Nc3ccc(OS(=O)(=O)F)cc3P(C)(C)=O)n1)C(C)N(C)CC2` (single isomer, unassigned; isomer 2) [Example 30, 4-((5-Chloro-2-((6-methoxy-1,2-dimethyl-1,2,3,4-tetrahydroisoquinolin-7-yl)amino)pyrimidin-4-yl)amino)-3-(dimethylphosphoryl)phenyl sulfofluoridate dihydrochloride (Isomer 2)], the “Tumor growth inhibition (TGI)” value in the assay with CT26 tumor (10 mg/kg p.o. QD, day 25, vs vehicle group) was determined as 37%; in the assay on CT26 tumor (50 mg/kg p.o. QD, day 25, vs vehicle group), 62%. This molecule showed an IC50 on MAP4K-1 enzyme of under 50 nM. For the same molecule, the “% Inhibition at 1 μM” value on MAP4K-1 enzyme (1 μM compound, 1 µM) stood at 79.12%. In addition, the “% Inhibition at 10 μM” value at MAP4K-1 enzyme (10 μM compound, 10 µM) is 82.70%.
In the case of `COc1cc2c(cc1Nc1ncc(Cl)c(Nc3cc(OS(=O)(=O)F)ccc3P(C)(C)=O)n1)C(C)N(C)CC2` (single isomer, unassigned; isomer 1) [Example 31, 3-((5-Chloro-2-((6-methoxy-1,2-dimethyl-1,2,3,4-tetrahydroisoquinolin-7-yl)amino)pyrimidin-4-yl)amino)-4-(dimethylphosphoryl)phenyl sulfofluoridate dihydrochloride (Isomer 1)], on MAP4K-1 enzyme (1 μM compound), testing at 1 µM gave an inhibition of 84.4%. Further, the inhibition at 10 µM at MAP4K-1 enzyme (10 μM compound) is 89%. In addition, at MAP4K-1 enzyme (IC50 (nM)), the 50% inhibitory concentration (IC50) is under 50 nM.
